pIC50: −log10 of the molar value.

What all share (type): biochemical
In one assay the target is T1, JAK3 (Homo sapiens, UniProt P52333).
T1 construct: 5 μl of catalytic domain recombinant Kinase enzyme+Tyr peptide substrate (Invitrogen, CA); purchased Invitrogen
Description: Z'-LYTE kinase assay JAK3. The essentials:
(§1)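 Read-out is FRET fluorescence between coumarin and fluorescein on a Tyr6 peptide, lost when the development protease cleaves unphosphorylated substrate. Kinase reaction used recombinant catalytic domain with ATP, 1 h at room temperature, 1% DMSO.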

The target of the next assay is T2, JAK2 (Homo sapiens, UniProt O60674).
T2 construct: 5 μl of catalytic domain recombinant Kinase enzyme+Tyr peptide substrate (Invitrogen, CA); purchased Invitrogen
Description: Z'-LYTE kinase assay JAK2. The essentials: as §1

Another assay concerns the target T3, JAK1 (Homo sapiens, UniProt P23458).
T3 construct: 5 μl of catalytic domain recombinant Kinase enzyme+Tyr peptide substrate (Invitrogen, CA); purchased Invitrogen
The experiment in a line: Z'-LYTE kinase assay JAK1. The essentials: as §1

T1 sequence (P52333 822-1111 limits assumed): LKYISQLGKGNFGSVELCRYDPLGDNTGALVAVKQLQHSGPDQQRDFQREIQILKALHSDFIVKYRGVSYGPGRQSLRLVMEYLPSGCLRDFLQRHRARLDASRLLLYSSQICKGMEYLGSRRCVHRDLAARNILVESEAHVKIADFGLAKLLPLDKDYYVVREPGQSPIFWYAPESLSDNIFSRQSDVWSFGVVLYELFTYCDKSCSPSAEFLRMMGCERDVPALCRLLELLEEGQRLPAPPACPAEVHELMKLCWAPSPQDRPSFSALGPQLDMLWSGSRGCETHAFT
T2 sequence (O60674 849-1124 limits assumed): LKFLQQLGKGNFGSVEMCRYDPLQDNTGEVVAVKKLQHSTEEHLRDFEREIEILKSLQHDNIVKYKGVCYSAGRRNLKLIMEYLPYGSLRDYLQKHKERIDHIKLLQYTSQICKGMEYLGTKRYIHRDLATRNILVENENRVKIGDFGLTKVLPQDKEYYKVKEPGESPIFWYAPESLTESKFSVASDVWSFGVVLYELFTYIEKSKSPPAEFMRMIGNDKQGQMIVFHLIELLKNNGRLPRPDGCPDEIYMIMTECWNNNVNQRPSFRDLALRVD
T3 sequence (P23458 875-1153 limits assumed): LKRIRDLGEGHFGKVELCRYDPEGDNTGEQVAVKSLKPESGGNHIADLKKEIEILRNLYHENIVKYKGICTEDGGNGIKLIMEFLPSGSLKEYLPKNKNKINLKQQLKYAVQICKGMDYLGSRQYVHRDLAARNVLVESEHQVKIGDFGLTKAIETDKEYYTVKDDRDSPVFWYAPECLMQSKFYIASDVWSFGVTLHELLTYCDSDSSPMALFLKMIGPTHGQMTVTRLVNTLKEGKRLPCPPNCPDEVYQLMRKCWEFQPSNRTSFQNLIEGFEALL

For `NC(=O)c1cnc(Nc2ccc(-c3c[nH]cn3)cc2)cc1NCc1ccccc1` [Example 276, 6-(4-(1H-imidazol-4-yl)phenylamino)-4-(benzylamino)nicotinamide], the figures for the negative logarithm of the IC50 (pIC50) on JAK3, against JAK2 and against JAK1 were 7.00 to 8.00, 6.00 to 7.00 and 6.00 to 7.00, respectively.
Take `CN(C)C(=O)c1ccc(Nc2cc(NCc3ccccc3)c(C(N)=O)cn2)cc1C(F)(F)F` [Example 272, 4-(benzylamino)-6-(4-(dimethylcarbamoyl)-3-(trifluoromethyl)phenylamino)nicotinamide]: the pIC50 at JAK3 is 7.00 to 8.00; against JAK2 it was under 6.00; against JAK1 it was under 6.00.
Consider `CC(=O)N1CCC[C@H](CNc2cc(Nc3ccc(C(=O)N(C)C)c(C(F)(F)F)c3)ncc2C(N)=O)C1` [Example 274, (R)-4-((1-acetylpiperidin-3-yl)methylamino)-6-(4-(dimethylcarbamoyl)-3-(trifluoromethyl)phenylamino)nicotinamide], for which the pIC50 is 6.00 to 7.00 against JAK3, under 6.00 on JAK2 and under 6.00 on JAK1.
Regarding `CCC(=O)N1CCC(c2ccc(Nc3cc(NCC4CCCC4)c(C(N)=O)cn3)cc2)CC1` [Example 176, 4-(cyclopentylmethylamino)-6-(4-(1-propionylpiperidin-4-yl)phenylamino)nicotinamide], the results for the negative-log IC50 (pIC50) against JAK3, against JAK2 and against JAK1 were 7.00 to 8.00, 6.00 to 7.00 and 6.00 to 7.00, respectively.
`COCC(=O)N1CC(c2ccc(Nc3cc(NCc4ccccc4)c(C(N)=O)cn3)cc2)C1` [Example 336, 4-(benzylamino)-6-(4-(1-(2-methoxyacetyl)azetidin-3-yl)phenylamino)nicotinamide]: the pIC50 was 8.00 to 9.00 against JAK3, 6.00 to 7.00 against JAK2 and 6.00 to 7.00 against JAK1.
Turning to `COC(=O)N1CCC[C@@H](CNc2cc(Nc3ccc(OC)cc3)ncc2C(N)=O)C1` [Example 52, (S)-methyl 3-((5-carbamoyl-2-(4-methoxyphenylamino)pyridin-4-ylamino)methyl)piperidine-1-carboxylate], the negative-log IC50 (pIC50) on JAK3 is 6.00 to 7.00; at JAK2, under 6.00; against JAK1 it was under 6.00.
`COc1ccc(Nc2cc(NCc3ccccc3)c(C(N)=O)cn2)cc1OC` [Example 293, 4-(benzylamino)-6-(3,4-dimethoxyphenylamino)nicotinamide]: the pIC50 against JAK3 is 7.00 to 8.00; against JAK2, 6.00 to 7.00; against JAK1 it was 6.00 to 7.00.
With `Cn1c(CNc2cc(Nc3ccc(C4CCOCC4)cc3)ncc2C(N)=O)nc2ccccc21` [Example 182, 4-((1-methyl-1H-benzo[d]imidazol-2-yl)methylamino)-6-(4-(tetrahydro-2H-pyran-4-yl)phenylamino)nicotinamide], the pIC50 at JAK3, on JAK2 and against JAK1 was under 6.00 each time.
In the case of `NC(=O)c1cnc(Nc2ccc(OC(F)(F)F)cc2)cc1NCc1cncc(F)c1` [Example 310], the pIC50 at JAK3 is 6.00 to 7.00; against JAK2, under 6.00; at JAK1, under 6.00.
With `COC[C@@H](Nc1cc(Nc2ccc(N3CCOCC3)cc2)ncc1C(N)=O)c1ccccc1` [Example 262, (S)-4-(2-methoxy-1-phenylethylamino)-6-(4-morpholinophenylamino)nicotinamide], the pIC50 on JAK3 was 7.00 to 8.00; against JAK2, 6.00 to 7.00; at JAK1 it was under 6.00.
In the case of `COC[C@@H](Nc1cc(Nc2ccc(C(=O)N(C)C)cc2)ncc1C(N)=O)c1ccccc1` [Example 263, (S)-6-(4-(dimethylcarbamoyl)phenylamino)-4-(2-methoxy-1-phenylethylamino)nicotinamide], the pIC50 is 7.00 to 8.00 at JAK3, 6.00 to 7.00 at JAK2 and under 6.00 on JAK1.
In the case of `CN(C)C(=O)C1CCN(c2ccc(Nc3cc(NCc4cccc5[nH]ccc45)c(C(N)=O)cn3)cc2)CC1` [Example 345, 4-((1H-indol-4-yl)methylamino)-6-(4-(4-(dimethylcarbamoyl)piperidin-1-yl)phenylamino)nicotinamide], the pIC50 on JAK3 was over 9.00; against JAK2, 8.00 to 9.00; against JAK1 it was 8.00 to 9.00.
On to `N#Cc1cccc(Nc2cc(NCc3ccccc3)c(C(N)=O)cn2)c1` [Example 391], for which the figures for the negative logarithm of the IC50 (pIC50) on JAK3, against JAK2 and at JAK1 were 7.00 to 8.00, under 6.00 and under 6.00, respectively.
Turning to `CS(=O)(=O)c1ccc(Nc2cc(NCc3cccc(-c4ccncc4)c3)c(C(N)=O)cn2)cc1` [Example 413, 6-(4-(methylsulfonyl)phenylamino)-4-(3-(pyridine-4-yl)benzylamino)nicotinamide], the pIC50 on JAK3 was 7.00 to 8.00; against JAK2, under 6.00; against JAK1, under 6.00.
`CCC(=O)N1CCN(c2ccc(Nc3cc(NC4(c5cccc(F)c5F)CC4)c(C(N)=O)cn3)cc2)CC1` [Example 374, 4-(1-(2,3-difluorophenyl)cyclopropylamino)-6-(4-(4-propionylpiperazin-1-yl)phenylamino)nicotinamide]: the pIC50 on JAK3 was 8.00 to 9.00; at JAK2, 7.00 to 8.00; against JAK1, 6.00 to 7.00.
`C[C@H](Nc1cc(Nc2ccc(C3CCOCC3)cc2)ncc1C(N)=O)C(C)(C)C` [Example 167, (S)-4-(3,3-dimethylbutan-2-ylamino)-6-(4-(tetrahydro-2H-pyran-4-yl)phenylamino)nicotinamide]: the pIC50 against JAK3 is 6.00 to 7.00; against JAK2, under 6.00; at JAK1 it was under 6.00.
Take `NC(=O)c1cnc(Nc2ccc(N3CCN(c4ccccn4)CC3)cc2)cc1NCc1cccc2[nH]ccc12` [Example 402]: the figures for the negative-log IC50 (pIC50) against JAK3, on JAK2 and on JAK1 were 8.00 to 9.00, 7.00 to 8.00 and 7.00 to 8.00, respectively.
As for `COC[C@@H](Nc1cc(Nc2ccc(C(=O)N3CCC3)cc2)ncc1C(N)=O)c1ccccc1` [Example 264, (S)-6-(4-(azetidine-1-carbonyl)phenylamino)-4-(2-methoxy-1-phenylethylamino)nicotinamide], the results for the pIC50 on JAK3, against JAK2 and against JAK1 were 7.00 to 8.00, 6.00 to 7.00 and 6.00 to 7.00, respectively.
Turning to `CN(C)C(=O)C1CCN(c2ccc(Nc3cc(NCc4cccc5sccc45)c(C(N)=O)cn3)cc2)CC1` [Example 344, 4-(benzo[b]thiophen-4-ylmethylamino)-6-(4-(4-(dimethylcarbamoyl)piperidin-1-yl)phenylamino)nicotinamide], the pIC50 on JAK3 is 8.00 to 9.00; against JAK2, 7.00 to 8.00; on JAK1, 6.00 to 7.00.
For the compound `CN(C)C(=O)C1CN(c2ccc(Nc3cc(NCc4ccccc4)c(C(N)=O)cn3)cc2F)C1` [Example 342, 4-(benzylamino)-6-(4-(3-(dimethylcarbamoyl)azetidin-1-yl)-3-fluorophenylamino)nicotinamide], the pIC50 against JAK3 was 8.00 to 9.00; against JAK2, 6.00 to 7.00; against JAK1 it was 6.00 to 7.00.
`CCC(=O)N(C)c1ccc(Nc2cc(NCc3cncc(F)c3)c(C(N)=O)cn2)cc1` [Example 480, 4-((5-fluoropyridin-3-yl)methylamino)-6-(4-(N-methylpropionamido)phenylamino)nicotinamide]: the negative logarithm of the IC50 (pIC50) against JAK3 was 7.00 to 8.00; against JAK2, 6.00 to 7.00; against JAK1, under 6.00.
For the compound `NC(=O)c1cnc(Nc2ccc(CN3CCOCC3)cc2)cc1NC1(c2ccccc2)CC1` [Example 127, 6-(4-(morpholinomethyl)phenylamino)-4-(1-phenylcyclopropylamino)nicotinamide], the negative-log IC50 (pIC50) on JAK3 is 7.00 to 8.00; against JAK2, 6.00 to 7.00; at JAK1 it was under 6.00.
Taken in the same sequence, the figures for `NC(=O)c1cnc(Nc2ccc(S(=O)(=O)N3CCC3)cc2)cc1NCc1ccccc1` [Example 47, 6-(4-(azetidin-1-ylsulfonyl)phenylamino)-4-(benzylamino)nicotinamide] were 6.00 to 7.00, under 6.00 and under 6.00.
For `NC(=O)c1cnc(Nc2ccc(S(=O)(=O)N3CCC3)cc2)cc1NCC1CCCC1` [Example 49, 6-(4-(azetidin-1-ylsulfonyl)phenylamino)-4-(cyclopentylmethylamino)nicotinamide] the same measures were 6.00 to 7.00, under 6.00 and under 6.00.
With `CCC(=O)N1CCC(c2ccc(Nc3cc(NCc4cccc5ccsc45)c(C(N)=O)cn3)cc2)CC1` [Example 211, 4-(benzo[b]thiophen-7-ylmethylamino)-6-(4-(1-propionylpiperidin-4-yl)phenylamino)nicotinamide], the values for the negative-log IC50 (pIC50) at JAK3, against JAK2 and on JAK1 were 8.00 to 9.00, 6.00 to 7.00 and under 6.00, respectively.
Turning to `CN(C)S(=O)(=O)c1ccc(Nc2cc(NCC3CCCC3)c(C(N)=O)cn2)cc1` [Example 97, 4-(cyclopentylmethylamino)-6-(4-(N,N-dimethylsulfamoyl)phenylamino)nicotinamide], the pIC50 is 6.00 to 7.00 at JAK3, under 6.00 against JAK2 and under 6.00 at JAK1.
`CCS(=O)(=O)N1CCC[C@H](CNc2cc(Nc3ccc(OC)cc3)ncc2C(N)=O)C1` [Example 289, (R)-4-((1-(ethylsulfonyl)piperidin-3-yl)methylamino)-6-(4-methoxyphenylamino)nicotinamide]: the negative-log IC50 (pIC50) on JAK3 was 7.00 to 8.00; at JAK2, 6.00 to 7.00; against JAK1, under 6.00.
Turning to `CCC(=O)N1CCC(c2ccc(Nc3cc(NC4CCCC4)c(C(N)=O)cn3)cc2)CC1` [Example 147, 4-(cyclopentylamino)-6-(4-(1-propionylpiperidin-4-yl)phenylamino)nicotinamide], the negative-log IC50 (pIC50) is 7.00 to 8.00 at JAK3, 6.00 to 7.00 against JAK2 and 6.00 to 7.00 against JAK1.
Consider `CN(C)C(=O)c1ccc(Nc2cc(NCc3cncc(F)c3)c(C(N)=O)cn2)cc1` [Example 312, 6-(4-(dimethylcarbamoyl)phenylamino)-4-((5-fluoropyridin-3-yl)methylamino)nicotinamide], for which the pIC50 is 8.00 to 9.00 on JAK3, 6.00 to 7.00 at JAK2 and 6.00 to 7.00 against JAK1.

A word on the pIC50: it is the negative decadic logarithm of the IC50, by convention in mol/L. Read a low pIC50 as a large IC50.

For the origin of these results see patent US20150353495A1 (PORTOLA PHARMACEUTICALS, INC., priority 2010, published 2015).
